{
  "source": "patent US20120003668A1",
  "about": "“HIGH RESOLUTION COMPLEX STRUCTURE AND ALLOSTERIC EFFECTS OF LOW MOLECULAR WEIGHT ACTIVATORS ON THE PROTEIN KINASE PDK1” (UNIVERSITAET DES SAARLANDES, priority 2008, published 2012)",
  "key": {"[1]": {"target": "T1, His-PDK1 50-556 / biotin-PIFtide interaction (Homo sapiens, UniProt O15530)", "T1 sequence (O15530 50-556)": "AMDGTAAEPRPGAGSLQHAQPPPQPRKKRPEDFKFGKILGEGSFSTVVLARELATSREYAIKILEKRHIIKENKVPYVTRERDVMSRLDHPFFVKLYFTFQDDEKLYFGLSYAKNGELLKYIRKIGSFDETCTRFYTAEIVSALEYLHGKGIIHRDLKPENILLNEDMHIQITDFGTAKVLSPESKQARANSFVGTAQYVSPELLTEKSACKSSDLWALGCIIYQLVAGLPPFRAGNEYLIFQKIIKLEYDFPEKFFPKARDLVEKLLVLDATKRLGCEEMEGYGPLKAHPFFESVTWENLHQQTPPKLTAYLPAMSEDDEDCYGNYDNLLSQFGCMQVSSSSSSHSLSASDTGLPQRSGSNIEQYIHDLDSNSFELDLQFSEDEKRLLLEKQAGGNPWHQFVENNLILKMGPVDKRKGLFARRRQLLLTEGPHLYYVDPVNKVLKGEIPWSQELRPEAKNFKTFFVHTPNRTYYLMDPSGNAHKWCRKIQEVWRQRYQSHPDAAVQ", "assay": "alpha-screen displacement of the His-PDK1 biotin-PIFtide interaction", "format": "binding", "description": "To study if low molecular weight compounds displaced the interaction, the compounds were incubated with the mix and the displacement of the His-PDK1 biotin-PIFtide interaction measured as a decrease in light emission."}, "PDK1 catalytic domain": {"target": "T2, PDK1 catalytic domain (Homo sapiens, UniProt O15530)", "T2 construct": "The catalytic domain (CD) of PDK1 50-359 and its mutants", "T2 sequence (O15530 50-359)": "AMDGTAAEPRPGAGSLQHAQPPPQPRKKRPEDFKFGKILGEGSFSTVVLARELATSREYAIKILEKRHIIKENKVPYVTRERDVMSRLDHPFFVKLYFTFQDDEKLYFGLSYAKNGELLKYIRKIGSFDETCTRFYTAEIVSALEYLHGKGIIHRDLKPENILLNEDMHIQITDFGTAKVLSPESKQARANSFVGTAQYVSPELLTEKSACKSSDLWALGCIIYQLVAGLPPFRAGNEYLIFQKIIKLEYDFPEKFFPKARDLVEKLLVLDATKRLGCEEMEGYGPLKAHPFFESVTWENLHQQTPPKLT", "assay": "TNP-ATP fluorescence probing of the ATP binding site conformation", "format": "biochemical", "excerpt": "Probing the conformation of the ATP binding site in PDK1: The activation of PDK1 by HM-polypeptides and small compounds is due to a change in the conformation of the enzyme. We probed the conformation of the ATP binding site in PDK1 by scanning the steady-state fluorescence of TNP-ATP/PDK1, in the presence or absence of P-HM-polypeptides, PIFtide, or small molecular weight compounds. Data were obtained in a Varian Cary Eclipse spectrofluorometer (excitation λ=479 nm; emission scanning, λ=500-600 nm; excitation slit=10 nm; emission slit=10 nm) at a rate of 200 nm/min, with 150 datapoints/100 nm scanning and 0.3 s averaging time. The incubation was performed at 20° C. in a buffer containing 50 mM Tris pH 7.5, 0.1 mM EDTA, 187 mM NaCl, 40 μM TNP-ATP, 15 μM PDK1 catalytic domain, 1 mM DTT and 1% DMSO. In the absence of PDK1, TNP-ATP produced approximately 1.5 arbitrary units (a.u.) of fluorescence, and the inclusion of PDK1 increased its fluorescence intensity to approximately 3.3 a.u. […] In preliminary tests, inclusion of 2.5 mM MgCl2 in the assay mix produced similar results. Data for each condition are the average of 3 scans."}, "[2]": {"target": "T3, PDK1 50-359 [Y288G;Q292A] (Homo sapiens, UniProt O15530, Q292A/Y288G)", "T3 sequence (O15530 with tags, fused parts or gaps Y288G/Q292A)": "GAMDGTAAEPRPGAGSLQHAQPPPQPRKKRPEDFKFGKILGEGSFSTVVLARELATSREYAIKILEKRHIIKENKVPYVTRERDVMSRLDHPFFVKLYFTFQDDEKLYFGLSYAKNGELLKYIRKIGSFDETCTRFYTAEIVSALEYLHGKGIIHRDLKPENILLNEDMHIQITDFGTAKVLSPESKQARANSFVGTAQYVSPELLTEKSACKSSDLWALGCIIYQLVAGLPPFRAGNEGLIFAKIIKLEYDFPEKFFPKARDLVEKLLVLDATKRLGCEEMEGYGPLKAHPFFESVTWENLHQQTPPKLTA", "assay": "Amide 1H/2H exchange and mass spectrometry", "method": "For local exchange analysis, the labeled proteins were digested with pepsin and the resulting polypeptides analyzed by tandem mass-spectrometry (LC-MS/MS) for their incorporation of deuterium atoms. The graphics represent the number of deuterium atoms incorporated into each polypeptide upon the stated incubation time in deuterated water. […] Over time, amide hydrogen atoms exchanged for deuteriums and the molecular weight of the protein increased. We repeated the ^1H/^2H exchange experiments at four different incubation times: 1, 5, 15 and 45 minutes. […] In the presence of peptide or small compounds, protein and ligand solution were pre-incubated on ice for 50 min before the mixture was diluted into labeling buffer. After the exchange reaction, samples were loaded on a pepsin column for one minute for digestion into peptides and samples quenched at each time point. They were then subjected to liquid chromatography for separation and analyzed by tandem mass-spectrometry (LC-MS/MS) for their incorporation of deuterium atoms. The entire plumbing system was immersed in an ice bath. 61 polypeptides were identified with overlapping regions, covering 80% of PDK1 sequence. As it is not possible to predict the cleavage sites of pepsin in the PDK1 sequence, it was necessary to identify the peptides generated by pepsin digestion for local-exchange analysis."}},
  "note": "Entries after “also recorded” stand apart in the source; their conditions may differ.",
  "data": [
    {"smiles": "O=C(O)/C=C(/CCc1ccc(Br)cc1F)c1ccccc1", "note": "[PS08]", "values": [
      {"measurement": "displacement of the binding of PIFtide to PDK1", "setting": "[1]", "result": "could be displaced"},
      {"measurement": "effect on TNP-ATP fluorescence intensity in the presence of PDK1", "setting": "PDK1 catalytic domain; 40 μM TNP-ATP, 15 μM PDK1 catalytic domain", "result": "concentration dependent decrease; also recorded: concentration-dependent decrease"},
      {"measurement": "maximum fluorescence intensity of TNP-ATP/PDK1", "setting": "PDK1 catalytic domain; 167 μM compound, % of maximal TNP-ATP fluorescence with 15 μM PDK1 CD", "result": 60, "unit": "%"},
      {"measurement": "decreased 2H incorporation, peptide 108-121", "setting": "[2]", "result": "1 ^2H"},
      {"measurement": "2H less incorporated, peptide 108-134", "setting": "[2]; first time point", "result": "4 ^2H"},
      {"measurement": "2H less incorporated, peptide 218-247", "setting": "[2]; first time point", "result": "1.5 ^2H"},
      {"measurement": "2H less incorporated, peptide 108-134", "setting": "[2]; following time points", "result": "2 ^2H"},
      {"measurement": "2H less incorporated, peptide 146-155", "setting": "[2]; time points 15 and 45", "result": "1 ^2H"}
    ]}
  ]
}
